Our source for the relative viability values is the supplement of paper PMC10307832.

What all share (assay): relative viability (nuclei count vs DMSO), 5 days (fraction); higher = more cells survive
Compound in experiment [1]: C1CC(C1)(C(=O)O)C(=O)O.[NH2-].[NH2-].[Pt+2] [Carboplatin] + CCNC(=O)c1noc(-c2cc(C(C)C)c(O)cc2O)c1-c1ccc(CN2CCOCC2)cc1 [Luminespib] (partner 0.01 µM)
In short, it runs like this: (§1)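 Five library-drug doses in √10 steps were combined with a fixed anchor-drug dose, or a single drug was given alone, by pin tool to lung cancer cell lines in 1536-well plates the day after seeding. Nuclei were stained and counted after 5 days. Relative viability is the nuclei count in treated wells over that in vehicle wells, taken as the median of duplicate plates.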

Compound in experiment [2]: NS(=O)(=O)OC[C@@H]1C[C@@H](n2ccc3c(N[C@H]4CCc5ccccc54)ncnc32)C[C@@H]1O [MLN4924] + O=C(CCCCCCC(=O)Nc1ccccc1)NO [Vorinostat] (partner 1 µM)
In short, it runs like this:
as §1

Compound in experiment [3]: CC[C@H](C)N1C=C(C2=C(C=C(C=C21)C3=CN=C(C=C3)N4CCNCC4)C(=O)NCC5=C(C=C(NC5=O)C)C)C [GSK126] + O=C(CCCCCCC(=O)Nc1ccccc1)NO [Vorinostat] (partner 1 µM)
The procedure, abridged: as §1

Compound in experiment [4]: NS(=O)(=O)OC[C@@H]1C[C@@H](n2ccc3c(N[C@H]4CCc5ccccc54)ncnc32)C[C@@H]1O [MLN4924] + CS(=O)(=O)N1CCN(Cc2cc3nc(-c4cccc5[nH]ncc45)nc(N4CCOCC4)c3s2)CC1 [Pictilisib] (partner 1 µM)
In short, it runs like this:
as §1

201T: the relative viability in experiment [1] (first compound 0.08 µM) is 1.02; in experiment [1] (first compound 0.253 µM) it was 1.06; in experiment [1] (first compound 0.8 µM), 1.1; in experiment [1] (first compound 2.53 µM) it was 0.988; in experiment [1] (first compound 8 µM), 1; in experiment [2] (first compound 0.04 µM) it was 0.991. Also, the relative viability came to 0.898 in experiment [2] (first compound 0.1265 µM); 0.406 in experiment [2] (first compound 0.4 µM); 0.277 in experiment [2] (first compound 1.265 µM); 0.17 in experiment [2] (first compound 4 µM); 1.05 in experiment [3] (first compound 0.08 µM); 1.04 in experiment [3] (first compound 0.253 µM). Also, the relative viability in experiment [3] (first compound 0.8 µM) was 0.954; in experiment [3] (first compound 2.53 µM) it was 1.13; in experiment [3] (first compound 8 µM) it was 1.15; in experiment [4] (first compound 0.04 µM) it was 0.783; in experiment [4] (first compound 0.1265 µM) it was 0.837; in experiment [4] (first compound 0.4 µM), 0.833. Moreover, the relative viability turned out to be 0.425 in experiment [4] (first compound 1.265 µM) and 0.366 in experiment [4] (first compound 4 µM).

Consider A549, for which the relative viability in experiment [4] (first compound 0.04 µM) is 0.5; in experiment [4] (first compound 0.1265 µM), 0.474; in experiment [4] (first compound 0.4 µM), 0.246; in experiment [4] (first compound 1.265 µM) it was 0.0557; in experiment [4] (first compound 4 µM), 0.0729.

As for A-427, the relative viability in experiment [1] (first compound 0.08 µM) was found to be 0.934; in experiment [1] (first compound 0.253 µM) it was 0.928; in experiment [1] (first compound 0.8 µM), 0.928; in experiment [1] (first compound 2.53 µM) it was 0.803; in experiment [1] (first compound 8 µM), 0.976; in experiment [2] (first compound 0.04 µM), 0.546. The relative viability in experiment [2] (first compound 0.1265 µM) came out at 0.403; in experiment [2] (first compound 0.4 µM), 0.309; in experiment [2] (first compound 1.265 µM), 0.231; in experiment [2] (first compound 4 µM), 0.237; in experiment [3] (first compound 0.08 µM), 0.863; in experiment [3] (first compound 0.253 µM), 0.833. Moreover, the relative viability in experiment [3] (first compound 0.8 µM) was found to be 0.865; in experiment [3] (first compound 2.53 µM), 0.958; in experiment [3] (first compound 8 µM), 0.896; in experiment [4] (first compound 0.04 µM), 0.66; in experiment [4] (first compound 0.1265 µM) it was 0.406; in experiment [4] (first compound 0.4 µM), 0.284. Moreover, the relative viability was 0.179 in experiment [4] (first compound 1.265 µM) and 0.222 in experiment [4] (first compound 4 µM).

Consider ABC-1, for which the relative viability in experiment [1] (first compound 0.08 µM) was determined as 1.17; in experiment [1] (first compound 0.253 µM) it was 0.704; in experiment [1] (first compound 0.8 µM), 0.451; in experiment [1] (first compound 2.53 µM) it was 0.435; in experiment [1] (first compound 8 µM), 0.273; in experiment [2] (first compound 0.04 µM), 0.946. Besides, the relative viability is 1.15 in experiment [2] (first compound 0.1265 µM); 0.572 in experiment [2] (first compound 0.4 µM); 0.279 in experiment [2] (first compound 1.265 µM); 0.363 in experiment [2] (first compound 4 µM); 1.19 in experiment [3] (first compound 0.08 µM); 1.08 in experiment [3] (first compound 0.253 µM). For the same cell line, the relative viability was 1.05 in experiment [3] (first compound 0.8 µM); 1.11 in experiment [3] (first compound 2.53 µM); 1.01 in experiment [3] (first compound 8 µM); 0.677 in experiment [4] (first compound 0.04 µM); 0.809 in experiment [4] (first compound 0.1265 µM); 0.372 in experiment [4] (first compound 0.4 µM). For the same cell line, the relative viability was 0.188 in experiment [4] (first compound 1.265 µM) and 0.374 in experiment [4] (first compound 4 µM).

For BEN, the relative viability in experiment [1] (first compound 0.08 µM) came to 0.462; in experiment [1] (first compound 0.253 µM) it was 0.3; in experiment [1] (first compound 0.8 µM), 0.257; in experiment [1] (first compound 2.53 µM), 0.311; in experiment [1] (first compound 8 µM), 0.266; in experiment [2] (first compound 0.04 µM) it was 0.434. Further, the relative viability came out at 0.463 in experiment [2] (first compound 0.1265 µM); 0.431 in experiment [2] (first compound 0.4 µM); 0.268 in experiment [2] (first compound 1.265 µM); 0.238 in experiment [2] (first compound 4 µM); 0.658 in experiment [3] (first compound 0.08 µM); 0.528 in experiment [3] (first compound 0.253 µM). The relative viability turned out to be 0.503 in experiment [3] (first compound 0.8 µM); 0.617 in experiment [3] (first compound 2.53 µM); 0.617 in experiment [3] (first compound 8 µM); 0.566 in experiment [4] (first compound 0.04 µM); 0.398 in experiment [4] (first compound 0.1265 µM); 0.254 in experiment [4] (first compound 0.4 µM). Further, the relative viability in experiment [4] (first compound 1.265 µM) was found to be 0.163; in experiment [4] (first compound 4 µM), 0.155.

Regarding CAL-12T, the relative viability was 0.324 in experiment [1] (first compound 0.08 µM); 0.334 in experiment [1] (first compound 0.253 µM); 0.317 in experiment [1] (first compound 0.8 µM); 0.579 in experiment [1] (first compound 2.53 µM); 0.282 in experiment [1] (first compound 8 µM); 0.792 in experiment [2] (first compound 0.04 µM). Also, the relative viability worked out at 0.921 in experiment [2] (first compound 0.1265 µM); 0.409 in experiment [2] (first compound 0.4 µM); 0.259 in experiment [2] (first compound 1.265 µM); 0.144 in experiment [2] (first compound 4 µM); 0.852 in experiment [3] (first compound 0.08 µM); 0.814 in experiment [3] (first compound 0.253 µM). In addition, the relative viability in experiment [3] (first compound 0.8 µM) came out at 0.614; in experiment [3] (first compound 2.53 µM) it was 0.777; in experiment [3] (first compound 8 µM), 0.9; in experiment [4] (first compound 0.1265 µM), 0.41; in experiment [4] (first compound 0.4 µM) it was 0.299; in experiment [4] (first compound 1.265 µM) it was 0.237. For the same cell line, in experiment [4] (first compound 4 µM), the relative viability worked out at 0.156.

On to COR-L23, for which the relative viability in experiment [1] (first compound 0.08 µM) was found to be 0.617; in experiment [1] (first compound 0.253 µM), 0.678; in experiment [1] (first compound 0.8 µM), 0.568; in experiment [1] (first compound 2.53 µM), 0.254; in experiment [1] (first compound 8 µM), 0.163; in experiment [2] (first compound 0.04 µM) it was 0.414. The relative viability in experiment [2] (first compound 0.1265 µM) amounted to 0.34; in experiment [2] (first compound 0.4 µM), 0.195; in experiment [2] (first compound 1.265 µM), 0.0783; in experiment [2] (first compound 4 µM), 0.0885; in experiment [3] (first compound 0.08 µM), 0.56; in experiment [3] (first compound 0.253 µM), 0.42. The relative viability in experiment [3] (first compound 0.8 µM) is 0.461; in experiment [3] (first compound 2.53 µM), 0.453; in experiment [3] (first compound 8 µM), 0.407; in experiment [4] (first compound 0.04 µM), 0.711; in experiment [4] (first compound 0.1265 µM), 0.71; in experiment [4] (first compound 0.4 µM) it was 0.159. Besides, the relative viability in experiment [4] (first compound 1.265 µM) turned out to be 0.104; in experiment [4] (first compound 4 µM) it was 0.0964.

For the cell line COR-L 105, the relative viability in experiment [1] (first compound 0.08 µM) was determined as 1.04; in experiment [1] (first compound 0.253 µM), 0.851; in experiment [1] (first compound 0.8 µM), 0.677; in experiment [1] (first compound 2.53 µM), 0.667; in experiment [1] (first compound 8 µM), 0.648; in experiment [2] (first compound 0.04 µM), 0.71. Further, the relative viability was 0.709 in experiment [2] (first compound 0.1265 µM); 0.353 in experiment [2] (first compound 0.4 µM); 0.232 in experiment [2] (first compound 1.265 µM); 0.403 in experiment [2] (first compound 4 µM); 0.963 in experiment [3] (first compound 0.08 µM); 0.828 in experiment [3] (first compound 0.253 µM). Besides, the relative viability in experiment [3] (first compound 0.8 µM) is 0.639; in experiment [3] (first compound 2.53 µM), 0.826; in experiment [3] (first compound 8 µM), 0.68; in experiment [4] (first compound 0.04 µM), 0.427; in experiment [4] (first compound 0.1265 µM), 0.455; in experiment [4] (first compound 0.4 µM), 0.399. For the same cell line, the relative viability in experiment [4] (first compound 1.265 µM) stood at 0.268; in experiment [4] (first compound 4 µM), 0.274.

Regarding Calu-6, the relative viability turned out to be 1.08 in experiment [4] (first compound 0.04 µM); 0.707 in experiment [4] (first compound 0.1265 µM); 0.238 in experiment [4] (first compound 0.4 µM); 0.108 in experiment [4] (first compound 1.265 µM); 0.135 in experiment [4] (first compound 4 µM).
